Laboratory results taken from ChEMBL document CHEMBL1122779, “Antiinflammatory agents. 3. Synthesis and pharmacological evaluation of 2-amino-3-benzoylphenylacetic acid and analogues” (J Med Chem, 1984).

Assays:
[1] = system: Mus musculus; assay: Oral analgesic activity was determined in mice by the acetylcholine-induced abdominal constriction assay upon ip administration of acetylcholine bromide 20 min following oral administration; format: functional; settings: Abdomen
[2] = species on record: Rattus norvegicus; assay: Evaluated for chronic potency in adjuvant arthritis assay; format: functional
[3] = system: Rattus norvegicus; assay: Evaluated for chronic intestinal toxicity (multiple oral dose) in rats; format: organism-based; settings: in vivo
[4] = system: Rattus norvegicus; assay: Percent change in average volume of pleural fluid at a dose of 4.0 mg/kg and 5-h response by Evans blue-carrageenan induced pleural effusion assay.; format: functional
[5] = system: Rattus norvegicus; assay: Acute gastric toxicity (single oral dose) in male fasted rats; format: organism-based, Stomach; settings: in vivo
[6] = system: Mus musculus; assay: Oral analgesic activity was determined in mice by the acetylcholine-induced abdominal constriction assay upon ip administration of acetylcholine bromide 5 hours following oral administration; format: functional; settings: Abdomen
[7] = system: Rattus norvegicus; assay: Percent change in avg. volume of pleural fluid at a dose of 0.16 mg/kg and 5-h response is evaluated by Evans blue-carrageenan induced pleural effusion assay
[8] = species on record: Rattus norvegicus; assay: Evaluated for acute potency in pleural effusion assay; format: functional
[9] = system: Rattus norvegicus; assay: Percent change in average volume of pleural fluid at a dose of 100 mg/kg and 5-h response by Evans blue-carrageenan induced pleural effusion assay.; format: functional
[10] = system: Rattus norvegicus; assay: Percent change in average volume of pleural fluid at a dose 4 mg/kg of indomethacin and 5-h response is evaluated by Evans blue-carrageenan induced pleural effusion assay; format: functional
[11] = biological target: T1, Cyclooxygenase (Bos taurus, UniProt O62664+O62698)
T1 sequence (O62664 whole entry): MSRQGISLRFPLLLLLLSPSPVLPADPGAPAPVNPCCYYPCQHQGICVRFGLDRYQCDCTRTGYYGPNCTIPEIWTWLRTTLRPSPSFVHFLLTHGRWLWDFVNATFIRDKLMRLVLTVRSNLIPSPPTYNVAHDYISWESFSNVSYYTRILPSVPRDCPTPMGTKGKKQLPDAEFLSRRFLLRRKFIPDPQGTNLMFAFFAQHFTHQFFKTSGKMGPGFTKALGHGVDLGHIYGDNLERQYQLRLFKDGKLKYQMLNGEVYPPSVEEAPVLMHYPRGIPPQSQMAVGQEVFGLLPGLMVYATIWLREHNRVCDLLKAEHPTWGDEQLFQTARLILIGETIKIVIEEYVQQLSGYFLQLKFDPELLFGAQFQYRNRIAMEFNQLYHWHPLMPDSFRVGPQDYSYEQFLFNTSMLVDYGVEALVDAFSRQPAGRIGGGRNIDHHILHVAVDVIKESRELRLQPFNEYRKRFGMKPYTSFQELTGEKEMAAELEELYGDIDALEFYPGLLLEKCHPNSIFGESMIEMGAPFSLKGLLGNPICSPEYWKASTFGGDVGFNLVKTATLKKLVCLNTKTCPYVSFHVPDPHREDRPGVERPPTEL
T1 sequence (O62698 whole entry): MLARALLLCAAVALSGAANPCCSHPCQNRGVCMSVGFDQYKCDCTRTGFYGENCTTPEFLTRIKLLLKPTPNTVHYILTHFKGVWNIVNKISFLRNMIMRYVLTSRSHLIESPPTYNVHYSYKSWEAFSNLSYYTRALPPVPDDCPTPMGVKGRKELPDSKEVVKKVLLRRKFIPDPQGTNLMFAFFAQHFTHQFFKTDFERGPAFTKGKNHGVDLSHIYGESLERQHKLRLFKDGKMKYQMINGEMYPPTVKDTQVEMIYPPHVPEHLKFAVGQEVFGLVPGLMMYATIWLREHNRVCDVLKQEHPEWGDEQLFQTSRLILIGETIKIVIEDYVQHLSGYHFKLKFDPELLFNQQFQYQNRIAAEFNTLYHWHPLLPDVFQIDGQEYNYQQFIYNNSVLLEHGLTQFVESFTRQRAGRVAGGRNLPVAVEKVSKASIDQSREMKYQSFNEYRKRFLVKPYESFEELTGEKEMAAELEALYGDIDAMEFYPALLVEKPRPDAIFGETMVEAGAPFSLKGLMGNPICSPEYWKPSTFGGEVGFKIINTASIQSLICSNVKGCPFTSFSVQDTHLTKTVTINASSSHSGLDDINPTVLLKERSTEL
Description: Inhibition of prostaglandin G/H synthase obtained from bovine seminal vesicles.

[12] = Acute therapeutic index as ratio of potency in pleural effusion to that of potency in gastric toxicity assay; format: tissue-based; settings: Stomach; read-out: Acute TI
[13] = Chronic therapeutic index as ratio of potency in adjuvant-induced arthritis assay to that of potency in intestinal toxicity assay; settings: read-out: Chronic TI

Row | Compound | ED50 [1] [mg/kg] | Potency [2] | Intestinal toxicity [3] | Change [4] [%] | Gastric toxicity [5] | ED50 [6] [mg/kg] | Change [7] [%] | Potency [8] | Change [9] [%] | Change [10] [%] | IC50 [11] [µM] | selectivity ratio [12] | selectivity ratio [13]
1 | COc1ccc2c(c1)c(CC(=O)O)c(C)n2C(=O)c1ccc(Cl)cc1 [INDOMETHACIN] | 0.22 | 1 | 1 | -33 | 1 | 0.22 | -7 | 1 |  |  |  |  | 
2 | Nc1c(CC(=O)[O-])cccc1C(=O)c1ccc(Br)cc1Cl.[Na+] | 0.12 | 7.4 | 1.6 | -26 | 5.6 | 1.6 |  | 1.6 | -37 | -32 | 0.05 |  | 
3 | Nc1c(CC(=O)[O-])cc(Cl)cc1C(=O)c1ccc(I)cc1.[Na+] | 0.24 | 5.5 | 2.2 | -35 | 3.5 | 0.24 |  | 3.8 | -38 | -33 | 0.03 | 1.1 | 2.5
4 | Cc1cc(CC(=O)O)n(C)c1C(=O)c1ccc(Cl)cc1 [ZOMEPIRAC] | 0.21 | 0.67 | 0.63 |  | 0.25 | 0.59 |  | 0.78 |  |  | 15 | 3.1 | 1.1
5 | Nc1c(CC(=O)[O-])cc(Cl)cc1C(=O)c1ccc(Br)cc1Cl.[Na+] | 0.66 | 2.5 | 3.3 | -25 | 1.2 | 0.19 |  | 4.9 | -37 | -36 | 0.05 |  | 
6 | Nc1c(CC(=O)[O-])cc(F)cc1C(=O)c1ccc(Cl)cc1.[Na+] | 0.28 | 1.9 | 0.5 | -37 | 1.1 | 1.4 | -15 | 3.6 |  | -34 | 0.1 |  | 
7 | Nc1c(CC(=O)[O-])cccc1C(=O)c1ccc(Cl)cc1Cl.[Na+] | 0.21 | 4.2 | 0.6 | -37 | 1 | > 0.3 | -16 | 5.3 | -41 | -33 | 0.6 |  | 
8 | Nc1c(CC(=O)[O-])cc(F)cc1C(=O)c1ccc(Br)cc1.[Na+] | 0.18 | 2.2 | 1.9 | -28 | 1.7 | 0.29 |  | 8.4 | -28 | -25 | 0.04 | 4.9 | 1.2
9 | Nc1c(CC(=O)[O-])cc(Cl)cc1C(=O)c1ccc(Br)cc1.[Na+] | 0.05 | 4.6 | 2.9 | -41 | 1.5 | 0.13 |  | 15 | -38 | -40 | 0.02 | 10 | 1.6
10 | Nc1c(CC(=O)[O-])cc(Br)cc1C(=O)c1ccc(Br)cc1.[Na+] | > 0.32 | 2.5 | 1 | -30 | 1.1 | 0.2 |  | 4.2 | -34 | -33 | 0.8 |  | 
11 | Cc1cc(CC(=O)[O-])c(N)c(C(=O)c2ccc(Br)cc2)c1.[Na+] | 0.72 | 1 | 1.1 | -31 | 1.2 | 0.7 |  | 2.8 | -39 | -36 | 0.7 |  | 
12 | CSc1ccc(C(=O)c2cc(Cl)cc(CC(=O)[O-])c2N)cc1.[Na+] | 0.1 | 0.1 |  | -43 | 0.9 | 1.9 |  | 1.8 | -43 | -40 | 0.02 |  | 
13 | Nc1c(CC(=O)[O-])cccc1C(=O)c1ccccc1.[Na+] [AMFENAC SODIUM] | 0.11 | 1.1 | 0.4 | -26 | 0.7 | > 3 | -13 | 0.7 | -35 | -33 |  |  | 
14 | Cc1cc(CC(=O)[O-])c(N)c(C(=O)c2ccc(Cl)cc2)c1.[Na+] | 0.78 | 0.63 | 0.4 | -32 | 0.27 | 0.65 | 0 | 1.7 | -38 | -35 | 0.7 |  | 
